Experimental data as given in patent publication US10640506B2, “Cyclobutyl substituted pyrrolopyridine and pyrrolopyrimidines derivatives as JAK inhibitors” (Incyte Corporation, priority 2010, dated 2020).
Like-named read-outs stand apart in the source and are kept apart here.

Tests used:
[1] = target: human JAK1 (a.a. 837-1142) (Homo sapiens, UniProt P23458); experiment: In vitro JAK kinase assay (HTRF, phosphorylation of biotinylated peptide), JAK1; format: biochemical
Summary of the method: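 His-tagged human JAK1 catalytic domain (a.a. 837-1142), baculovirus/insect-cell expressed, phosphorylates a biotinylated peptide for 1 h at room temperature. Reaction stopped with EDTA; product detected by HTRF (SA-APC, Eu-Py20, 40 min binding). IC50 reported as ranges.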

JAK2 (a.a. 828-1132) = target: T1, JAK2 (a.a. 828-1132) (Homo sapiens, UniProt O60674); experiment: In vitro JAK kinase assay (HTRF, phosphorylation of biotinylated peptide), JAK2; format: biochemical
T1 construct: JAK2 (a.a. 828-1132); His tag (N)
T1 sequence (O60674 828-1132): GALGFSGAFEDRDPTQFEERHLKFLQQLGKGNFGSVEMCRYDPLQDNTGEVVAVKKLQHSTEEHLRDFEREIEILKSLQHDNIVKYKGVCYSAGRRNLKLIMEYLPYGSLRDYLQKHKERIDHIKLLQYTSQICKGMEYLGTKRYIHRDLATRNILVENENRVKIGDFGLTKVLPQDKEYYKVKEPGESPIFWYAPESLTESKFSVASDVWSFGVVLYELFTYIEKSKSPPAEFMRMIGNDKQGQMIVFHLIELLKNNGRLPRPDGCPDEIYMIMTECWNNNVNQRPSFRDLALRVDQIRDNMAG
Summary of the method: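 His-tagged catalytic domains of human JAK1 (a.a. 837-1142) and JAK2 (a.a. 828-1132), baculovirus-expressed, phosphorylate a biotinylated peptide for 1 hour at room temperature. Stopped with EDTA; detected by HTRF using SA-APC and Eu-Py20 antibody after 40 min binding; values binned as ranges.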

Sequence of human JAK1 (a.a. 837-1142) (P23458 849-1154): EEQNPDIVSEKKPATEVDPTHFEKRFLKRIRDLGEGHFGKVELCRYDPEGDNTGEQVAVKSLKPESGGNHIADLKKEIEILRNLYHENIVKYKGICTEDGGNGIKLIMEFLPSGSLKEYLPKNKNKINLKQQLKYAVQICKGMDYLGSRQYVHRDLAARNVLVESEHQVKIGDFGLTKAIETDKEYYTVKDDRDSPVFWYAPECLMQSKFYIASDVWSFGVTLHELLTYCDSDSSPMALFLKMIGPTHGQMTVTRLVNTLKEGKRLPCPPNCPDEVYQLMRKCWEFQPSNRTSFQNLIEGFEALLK

Row | Molecule | IC50 ([1]; Table F, 1 mM ATP) [nM] | IC50 (JAK2 (a.a. 828-1132); Table F, 1 mM ATP) [nM] | IC50 ([1]; read-out: JAK1 IC50 (nM) at 1 mM ATP, Table F) [nM] | IC50 (JAK2 (a.a. 828-1132); read-out: JAK2 IC50 (nM) at 1 mM ATP, Table F) [nM]
1 | N#CC[C@]1(n2cc(-c3ncnc4[nH]ccc34)cn2)C[C@H](N2CCC(Oc3cc(CN4CCC[C@@H]4CO)cc(C(F)(F)F)n3)CC2)C1 [Example 162, {trans-3-(4-{[4-{[(2R)-2-(hydroxymethyl)pyrrolidin-1-yl]methyl}-6-(trifluoromethyl)pyridin-2-yl]oxy}piperidin-1-yl)-1-[4-(7H-pyrrolo[2,3-d]pyrimidin-4-yl)-1H-pyrazol-1-yl]cyclobutyl}acetonitrile] | < 10 | > 100 |  | 
2 | CC(C)(O)c1cc(C(=O)N2CCN([C@H]3C[C@](CC#N)(n4cc(-c5ccnc6[nH]ccc56)cn4)C3)CC2)nc(C(F)(F)F)c1 [Example 163, {trans-3-(4-{[4-(1-hydroxy-1-methylethyl)-6-(trifluoromethyl)pyridin-2-yl]carbonyl}piperazin-1-yl)-1-[4-(1H-pyrrolo[2,3-b]pyridin-4-yl)-1H-pyrazol-1-yl]cyclobutyl}acetonitrile] | < 10 | 25 to 100 |  | 
3 | {cis-3-(4-{[6-(1-hydroxy-1-methylethyl)-2-(trifluoromethyl)pyrimidin-4-yl]carbonyl}piperazin-1-yl)-1-[4-(1H-pyrrolo[2,3-b]pyridin-4-yl)-1H-pyrazol-1-yl]cyclobutyl}acetonitrile [Example 77] |  |  | < 10 | 25 to 100
